These results are taken from patent US20130095059A1, “INHALED NO DONOR KMUPS DERIVATIVE PREVENTING ALLERGIC PULMONARY VASCULAR AND BRONCHIAL INFLAMMATION VIA SUPPRESSED CYTOKINES, INOS AND INFLAMMATORY CELL COUNTS IN ASTHMA MODEL” (priority 2007, published 2013).

In one test the test system is PDE-5A. Kind of test: Protein expression (optical density %) after KMUPs salts, PDE-5A. The test is classed as cell-based. Conditions: 10 μM, 120 min; without treatment control 100 %.
The next test relates to ROCKII. Kind of test: Protein expression (optical density %) after KMUPs salts, ROCKII. The test is classed as cell-based. The conditions noted are these: 10 μM, 120 min; without treatment control 100 %.
The next test concerns IL-5. In words: Ovalbumine model, plasma IL-5 (ELISA). The test is classed as in vivo, mice. The conditions noted are these: OVA-sens; inhalation 5 mM; OVA-sens alone 43 ± 6. As to the method:
(§1) In this long-term experiment, 6-8 week old BALB/c female mice were sensitized on days 1 and 8 by intra-peritoneal injection (i.p.) of ovalbumine (10 μg) (Sigma-Aldrich, Schnelldorf, Germany) adsorbed to 2 mg aluminum hydroxide (AlumInject; Perbio, Erembodegem, Belgium). Mice were divided into three groups. In Group 1, a control group was only exposed to saline nebulization by aerosol. The other 2 groups were subjected to ovalbumine (1%) nebulization. Before each challenge with ovalbumine, mice were either exposed to saline nebulization (Group 2) or KMUP-1 nebulization (5 mM) for 30 min by aerosol (Group 3).
For orientation: An ELISA detects its analyte on a solid surface through an enzyme-linked reagent.

Test [1] relates to MMP-9. In words: Ovalbumine model, MMP-9 expression, zymography and immunostaining. It is filed as in vivo, BALB/c mice. The conditions noted are these: inhalation 5 mM; non-treatment allergic animal 100 %. As to the method: as §1
The gelatinolytic activity of MMP-9 was measured by gelatin zymography as described previously (Cataldo D D, et al., 2002). Briefly, BALF (10 μl) was subjected to electrophoresis in 10% polyacrylamide gel containing gelatin (1 mg/ml). The gel was washed in 2.5% Triton X-100 to permit re-naturation of gelatinases and stained with Coomassie blue after overnight incubation. Destaining visualized clear zones of lysis against a blue background indicated the gelatinase activity (Hibbs, M S, et al., 1985).
The lung tissues were homogenized, washed with PBS and incubated in lysis buffer in addition to a protease inhibitor cocktail (Sigma, St. Louis, Mo.) to obtain extracts of lung proteins. A Western blot analysis was performed as described previously (Wu B N, et al., 2006). The samples were loaded to 10% SDS-PAGE gels and were separated at 120 V for 90 min. The blots were incubated with anti-eNOS antibody diluted at a ratio of 1:500, anti-sGCα1 antibody diluted at a ratio of 1:2000, anti-PKG antibody diluted at a ratio of 1:500, anti-VCAM-1 antibody diluted at a ratio of 1:500, anti-ICAM-1 antibody diluted at a ratio of 1:500, and anti-MMP-9 antibody diluted at a ratio of 1:600 overnight at 4° C. The membranes were stripped and re-blotted with anti-actin antibody (Sigma, St. Louis, Mo.) to verify the equal loading of protein in each lane.
Immunohistochemical analysis of eNOS enhancement by KMUP-1 was performed as follows. The lungs were perfused with saline followed by 10% formalin and then placed in 10% formalin for paraffin embedding. The lung tissues were cut into […] sections onto slides, dewaxed in 100% xylene, and then re-hydrated in graded alcohol solutions. Throughout the procedures, slides were washed as appropriate in PBS. Antigen retrieval was performed by microwave treatment for eNOS immunostaining. Sections were treated with 3% H2O2 (10 min) to inhibit endogenous peroxidases and incubated with normal serum (60 min) to reduce nonspecific binding of secondary antibodies. Sections were then incubated at 4° C. overnight with eNOS antibodies. After washing off unbounded primary antibodies, sections were incubated with secondary biotinylated antibodies against mouse or rabbit (DAKO Co., Japan) (60 min), followed by incubation in avidin/biotin/horseradish peroxidase complex (DAKO Co., Japan) (30 min) Subsequently, peroxidase activity was visualized by incubation (3 min) with 0.05% 3,3′-diaminobenzidine (DAKO Co., Japan), which gives a brown reaction product. The reaction was stopped by washing with water. The slides were counterstained with hematoxylin. For immunostaining of MMP-9 in lung tissue, the de-paraffinized 3-5 μm sections of lung tissue was performed as above eNOS, but using MMP-9 antibody.

Test [2] deals with BALF cells. Kind of test: Ovalbumine model, bronchoalveolar lavage cell counts. The test is classed as in vivo, BALB/c mice. The conditions noted are these: inhalation 5 mM; for Neurophil: OVA 1.0 ± 0.2; for Lymphocyte / monocyte: OVA 2.4 ± 0.3; for (Table 5) / Eosinophil: OVA 37.2 ± 2.8; for Total cells: OVA 65.3 ± 3.4. The protocol:
as §1
After the sacrifice of mice, a cannula was placed in the trachea for bronchoalveolar lavage by gentle manual aspiration, using cold PBS-EDTA (0.05 mM, 1 ml) (Calbiochem, Darmstadt, Germany) as previously described (Cataldo D D, et al., 2002). The broncho alveolar lavage fluid (BALF) was centrifuged at 4° C. for 10 min (1200 rpm). The supernatant was frozen at −80° C. for protein assessment and the cell pellet was resuspended in PBS-EDTA (0.05 mM, 1 ml). Total cell counts were performed manually using a thoma chamber. The differential cell counts were performed using morphologic criteria on cytocentrifuged preparations (Cytospin) after staining with Diff-Quick (Dade, Belgium). Differential cell counts were performed by one blinded observer unaware of the experimental treatment.

The test system of another test is IL-13. In words: Ovalbumine model, plasma IL-13 (ELISA). The test is classed as in vivo, mice. The conditions noted are these: OVA-sens; inhalation 5 mM; OVA-sens alone 35 ± 6. As to the method:
as §1

The next test concerns iNOS. In words: Ovalbumine model, iNOS expression. The test is classed as in vivo, BALB/c mice. The conditions noted are these: non-treatment allergic animal 100 %.
In a further test the test system is eNOS. Kind of test: Protein expression (optical density %) after KMUPs salts, eNOS. It is filed as cell-based. The conditions noted are these: 10 μM, 120 min; without treatment control 100 %.
The subject of test [3] is BALF cells. Kind of test: Ovalbumine model, bronchoalveolar lavage cell counts. It is filed as in vivo, BALB/c mice. The conditions noted are these: oral 2.5 mg Kg^−1.
Test [4] relates to MMP-9. Kind of test: Ovalbumine model, MMP-9 expression, zymography and immunostaining. The test is classed as in vivo, BALB/c mice. Conditions: oral 2.5 mg Kg^−1; non-treatment allergic animal 100 %.

On to `COc1ccccc1N1CCN(CCn2cnc3c2c(=O)n(C)c(=O)n3C)CC1.O=C(O)CC(O)(CC(=O)O)C(=O)O` [KMUP-2-citric acid, 7-[2-[4-(2-methoxybenzene)piperazinyl]ethyl]-1,3-dimethylxanthine-Citric acid], for which the “PDE-5A protein expression, optical densitivity %” value with PDE-5A turned out to be 71 ± 5.4%. Also, the “ROCKII protein expression, optical densitivity %” value in the test on ROCKII was 40 ± 3.7%.
As for `Cl.Cn1c(=O)c2c(ncn2CCN2CCN(c3ccccc3Cl)CC2)n(C)c1=O` [KMUP-1 HCl, 7-[2-[4-(2-chlorophenyl)piperazinyl]ethyl]-1,3-dimethylxanthine HCl], the “PDE-5A protein expression, optical densitivity %” value in the test with PDE-5A stood at 64 ± 4.5%. The same molecule came in with an IL-5 with IL-5 of 31 ± 6 pg/mL. The molecule further registered an MMP-9 with MMP-9 [1] of 42 ± 6.3%. Moreover, in the test on BALF cells [2], the Neurophil was 1.0 ± 0.2 × 10^4 cell/ml, the Lymphocyte was 1.5 ± 0.3 × 10^4 cell/ml, the monocyte was 1.5 ± 0.3 × 10^4 cell/ml and the “(Table 5)” value is reported as 23.7 ± 2.8 × 10^4 cell/ml. For the same molecule, in the test on BALF cells [2], the Eosinophil is given as 23.7 ± 2.8 × 10^4 cell/ml and the Total cells is 50.6 ± 2.4 × 10^4 cell/ml. Also, the IL-13 in the test on IL-13 was 14 ± 5 pg/mL. In addition, the “ROCKII protein expression, optical densitivity %” value with ROCKII was 42 ± 6.3%. In the test on iNOS (inhalation 5 mM), this molecule returned an iNOS of 55 ± 14.8%. Besides, the “eNOS protein expression, optical densitivity %” value in the test on eNOS turned out to be 155 ± 14.8%.
As for `COc1ccccc1N1CCN(CCn2cnc3c2c(=O)n(C)c(=O)n3C)CC1.Cl` [KMUP-2 HCl, 7-[2-[4-(2-methoxybenzene)piperazinyl]ethyl]-1,3-dimethylxanthine hydrochloride], the “PDE-5A protein expression, optical densitivity %” value in the test with PDE-5A amounted to 68 ± 5.3%. The IL-5 with IL-5 came to 32 ± 6 pg/mL. The molecule also returned an MMP-9 with MMP-9 [1] of 40 ± 3.7%. Further, in the test on BALF cells [2], the Neurophil is 1.0 ± 0.4 × 10^4 cell/ml, the Lymphocyte is listed as 1.2 ± 3.7 × 10^4 cell/ml, the monocyte is recorded as 1.2 ± 3.7 × 10^4 cell/ml and the “(Table 5)” value is listed as 25 ± 2.2 × 10^4 cell/ml. In the test with BALF cells [2], the Eosinophil is given as 25 ± 2.2 × 10^4 cell/ml and the Total cells is given as 51.0 ± 0.4 × 10^4 cell/ml. Moreover, the IL-13 with IL-13 is 15 ± 3 pg/mL. Also, the “ROCKII protein expression, optical densitivity %” value in the test with ROCKII is on record as 40 ± 3.7%. Moreover, in the test with iNOS (inhalation 5 mM), the iNOS came out at 47 ± 8.6%.
`Cn1c(=O)c2c(ncn2CCN2CCN(c3ccccc3Cl)CC2)n(C)c1=O.O=C(O)c1cccnc1` [KMUP-1-nicotinic acid, 7-[2-[4-(2-chlorobenzene)piperazinyl]ethyl]-1,3-dimethylxanthine-Nicotinic acid]: in the test on PDE-5A, the “PDE-5A protein expression, optical densitivity %” value was 62 ± 4.8%. Besides, the “ROCKII protein expression, optical densitivity %” value in the test on ROCKII worked out at 41 ± 2.5%. Moreover, the “eNOS protein expression, optical densitivity %” value in the test with eNOS was found to be 158 ± 12.4%.
In the case of `Cn1c(=O)c2c(ncn2CCN2CCN(c3ccccc3[N+](=O)[O-])CC2)n(C)c1=O.O=C(O)CC(O)(CC(=O)O)C(=O)O` [KMUP-4-citric acid, 7-[2-[4-(2-nitrobenzene)piperazinyl]ethyl]-1,3-dimethylxanthine-Citric acid], the “PDE-5A protein expression, optical densitivity %” value in the test with PDE-5A was found to be 78 ± 3.6%. Besides, the “ROCKII protein expression, optical densitivity %” value in the test with ROCKII was determined as 56 ± 3.4%. In the test on eNOS, the “eNOS protein expression, optical densitivity %” value came out at 131 ± 6.7%.
On to `Cn1c(=O)c2c(ncn2CCN2CCN(c3ccc([N+](=O)[O-])cc3)CC2)n(C)c1=O.O=C(O)c1cccnc1` [KMUP-3-nicotinic acid, 7-[2-[4-(4-nitrobenzene)piperazinyl]ethyl]-1,3-dimethylxanthine-Nicotinic acid], for which, in the test with PDE-5A, the “PDE-5A protein expression, optical densitivity %” value is 60 ± 4.1%. Moreover, the “ROCKII protein expression, optical densitivity %” value with ROCKII was 43 ± 1.6%. For the same molecule, in the test on eNOS, the “eNOS protein expression, optical densitivity %” value was determined as 145 ± 7.5%.
As to `Cn1c(=O)c2c(ncn2CCN2CCN(c3ccccc3Cl)CC2)n(C)c1=O.O=C(O)CC(O)(CC(=O)O)C(=O)O` [KMUP-1-citric acid, 7-[2-[4-(2-chlorobenzene)piperazinyl]ethyl]-1,3-dimethylxanthine-Citric acid], the “PDE-5A protein expression, optical densitivity %” value with PDE-5A was determined as 66 ± 5.2%. Moreover, the “ROCKII protein expression, optical densitivity %” value in the test with ROCKII was 43 ± 3.8%. The “eNOS protein expression, optical densitivity %” value in the test on eNOS was found to be 152 ± 13.6%.
As for `Cl.Cn1c(=O)c2c(ncn2CCN2CCN(c3ccc([N+](=O)[O-])cc3)CC2)n(C)c1=O` [KMUP-3 HCl, 7-[2-[4-(4-nitrobenzene)piperazinyl]ethyl]-1,3-dimethyl xanthine HCl], the “PDE-5A protein expression, optical densitivity %” value in the test on PDE-5A is 63 ± 5.2%. Further, the MMP-9 in the test on MMP-9 [1] amounted to 44 ± 2.9%; in the test with MMP-9 [4], 43 ± 1.6%. The figures for the Neurophil with BALF cells [2] and in the test on BALF cells [3] (OVA 1.0 ± 0.2) were 1.0 ± 0.3 × 10^4 cell/ml and 1.1 ± 0.3 × 10^4 cell/ml, respectively. In addition, the Lymphocyte is on record as 1.3 ± 0.6 × 10^4 cell/ml with BALF cells [2] and 1.7 ± 2.8 × 10^4 cell/ml in the test on BALF cells [3] (OVA 2.4 ± 0.3). Further, the monocyte in the test with BALF cells [2] is given as 1.3 ± 0.6 × 10^4 cell/ml; with BALF cells [3] (OVA 2.4 ± 0.3), 1.7 ± 2.8 × 10^4 cell/ml. The “(Table 5)” value was 24 ± 3.5 × 10^4 cell/ml in the test with BALF cells [2] and 25 ± 2.5 × 10^4 cell/ml in the test on BALF cells [3] (OVA 37.2 ± 2.8). Besides, the Eosinophil in the test on BALF cells [2] is 24 ± 3.5 × 10^4 cell/ml; with BALF cells [3] (OVA 37.2 ± 2.8), 25 ± 2.5 × 10^4 cell/ml. Further, the Total cells in the test on BALF cells [2] is 52.1 ± 0.2 × 10^4 cell/ml; in the test with BALF cells [3] (OVA 65.3 ± 3.4), 51.2 ± 0.3 × 10^4 cell/ml. In addition, in the test on ROCKII, the “ROCKII protein expression, optical densitivity %” value turned out to be 44 ± 2.9%. Also, the iNOS came out at 48 ± 7.5% with iNOS (inhalation 5 mM) and 45 ± 7.5% in the test with iNOS (oral 2.5 mg Kg^−1). Also, in the test with eNOS, the “eNOS protein expression, optical densitivity %” value amounted to 148 ± 7.5%.
